Consider twelve compounds from patent publication US8119616B2, “Formulation of quinazoline based EGFR inhibitors containing a zinc binding moiety” (Curis, Inc., priority 2007, dated 2012).

Some results are limits rather than exact numbers.

The test system of data set [1] is T1, HDAC.
T1 construct: rows headed: HDAC IC50
Briefly: HDAC fluorimetric enzyme assay (HeLa nuclear extract). The class given is biochemical. Particulars: FIG. 1.
Description: HDAC inhibitors were screened using an HDAC fluorimetric assay kit (AK-500, Biomol, Plymouth Meeting, Pa.). […] Fluorescence was measured on a WALLAC Victor 2 plate reader and reported as relative fluorescence units (RFU). Data were plotted using GraphPad Prism (v4.0a) and IC50's calculated using a sigmoidal dose response curve fitting algorithm. Each assay was setup as follows: Defrosted all kit components and kept on ice until use. […] Prepared dilutions of Trichostatin A (TSA, positive control) and tested compounds in assay buffer (5× of final concentration). Diluted Fluor de Lys™ Substrate in assay buffer to 100 uM (50 fold=2× final). Diluted Fluor de Lys™ developer concentrate 20-fold (e.g. 50 μl plus 950 μl Assay Buffer) in cold assay buffer. Second, diluted the 0.2 mM Trichostatin A 100-fold in the 1× Developer (e.g. 10 μl in 1 ml; final Trichostatin A concentration in the 1× Developer=2 μM; final concentration after addition to HDAC/Substrate reaction=1 μM). Added Assay buffer, diluted trichostatin A or test inhibitor to appropriate wells of the microtiter plate. Added diluted HeLa extract or other HDAC sample to all wells except for negative controls.

The target of data set [2] is T2, human EGFR (Homo sapiens, UniProt P00533).
T2 construct: human EGFR (His672-Ala1210); purchased Cell Signaling Technologies; host or cells: baculovirus expression system
T2 sequence (P00533 672-1210): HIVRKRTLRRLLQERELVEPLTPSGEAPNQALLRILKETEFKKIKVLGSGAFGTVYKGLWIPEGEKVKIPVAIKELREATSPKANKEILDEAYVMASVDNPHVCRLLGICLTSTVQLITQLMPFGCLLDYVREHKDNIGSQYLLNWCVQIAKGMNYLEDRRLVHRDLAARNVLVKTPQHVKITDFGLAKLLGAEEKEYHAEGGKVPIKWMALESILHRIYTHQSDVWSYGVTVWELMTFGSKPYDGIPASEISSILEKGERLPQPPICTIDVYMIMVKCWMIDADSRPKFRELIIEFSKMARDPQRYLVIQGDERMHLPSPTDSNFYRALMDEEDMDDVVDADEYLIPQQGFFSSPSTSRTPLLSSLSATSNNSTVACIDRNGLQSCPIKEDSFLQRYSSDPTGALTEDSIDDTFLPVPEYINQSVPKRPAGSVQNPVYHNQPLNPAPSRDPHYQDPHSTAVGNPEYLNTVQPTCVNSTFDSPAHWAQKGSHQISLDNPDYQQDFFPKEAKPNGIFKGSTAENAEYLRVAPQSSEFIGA
Briefly: HTScan EGF Receptor Kinase assay. The class given is biochemical. The method, then:
The ability of compounds to inhibit receptor kinase (EGFR) activity was assayed using HTScan™ EGF Receptor Kinase Assay Kits (Cell Signaling Technologies, Danvers, Mass.). […] The protein was purified by one-step affinity chromatography using glutathione-agarose.
Immediately transfer enzyme from −80° C. to ice. Allowed enzyme to thaw on ice. […] Returned immediately to ice. […] Incubated reaction plate at room temperature for 30 minutes. […] Added 100 μl/well primary antibody. Incubated at room temperature for 60 minutes. […] Added 100 μl/well diluted antibody. Incubated at room temperature for 30 minutes. […] Incubated at room temperature for 5 minutes.

Data set [3] deals with Pancreas_Capan1. As to the kind of experiment: Cell proliferation assay (ATPlite). It counts as cell-based. Particulars: 72 hours, 0.5% fetal bovine serum. The method, then: (§1) A representative number of compounds were assayed against several different cell lines using the cell proliferation assay:
(§2) Cell Proliferation Assay:
(§3) Cancer cell lines were plated at 5,000 to 10,000 per well in 96-well flatted bottomed plates with various concentration of compounds. The cells were incubated with compounds for 72 hours in the presence of 0.5% of fetal bovine serum. Growth inhibition was accessed by adenosine triphosphate (ATP) content assay using Perkin Elmer ATPlite kit. ATPlite is an ATP monitoring system based on firefly luciferase. Briefly, 25 μl of mammalian cell lysis solution was added to 50 μl of phenol red-free culture medium per well to lyse the cells and stabilize the ATP. 25 μl of substrate solution was then added to the well and subsequently the luminescence was measured.

Data set [4] concerns Lung_H460. Briefly: Cell proliferation assay (ATPlite). The following applies: 72 hours, 0.5% fetal bovine serum. It counts as cell-based. As for the experimental part:
as §1, §2, §3

For data set [5], the system named is Lung_H2122. Briefly: Cell proliferation assay (ATPlite). Particulars: 72 hours, 0.5% fetal bovine serum. The class given is cell-based. As for the experimental part:
as §1, §2, §3
On the technique in general: In ATP-based viability assays light output follows the ATP content of the culture.

Data set [6] deals with Lung_H1975. As to the kind of experiment: Cell proliferation assay (ATPlite). The class given is cell-based. Particulars: 72 hours, 0.5% fetal bovine serum. As for the experimental part:
as §1, §2, §3

Data set [7] deals with Pancreas_BxPC3. Briefly: Cell proliferation assay (ATPlite). The class given is cell-based. The following applies: 72 hours, 0.5% fetal bovine serum. As for the experimental part:
as §1, §2, §3

Data set [8] has as its system Lung_H358. As to the kind of experiment: Cell proliferation assay (ATPlite). The class given is cell-based. The following applies: 72 hours, 0.5% fetal bovine serum. The method, then: as §1, §2, §3
In data set [9] the test system is Prostate_PC3. Briefly: Cell proliferation assay (ATPlite). The following applies: 72 hours, 0.5% fetal bovine serum. The class given is cell-based. The method, then:
as §1, §2, §3

Data set [10] relates to Pancreas_HPAC. As to the kind of experiment: Cell proliferation assay (ATPlite). It counts as cell-based. Particulars: 72 hours, 0.5% fetal bovine serum. As for the experimental part:
as §1, §2, §3

For data set [11], the system named is Pancreas_CFPAC. Briefly: Cell proliferation assay (ATPlite). The class given is cell-based. The following applies: 72 hours, 0.5% fetal bovine serum. As for the experimental part:
as §1, §2, §3

For data set [12], the system named is Colon_HCT116. Briefly: Cell proliferation assay (ATPlite). It counts as cell-based. The following applies: 72 hours, 0.5% fetal bovine serum. As for the experimental part:
as §1, §2, §3

Data set [13] concerns Pancreas_MiaPaCa2. Briefly: Cell proliferation assay (ATPlite). Particulars: 72 hours, 0.5% fetal bovine serum. The class given is cell-based. The method, then: as §1, §2, §3
The subject of data set [14] is Pancreas_PANC1. As to the kind of experiment: Cell proliferation assay (ATPlite). It counts as cell-based. The following applies: 72 hours, 0.5% fetal bovine serum. The method, then: as §1, §2, §3
Data set [15] relates to Lung_HCC827. As to the kind of experiment: Cell proliferation assay (ATPlite). The class given is cell-based. Particulars: 72 hours, 0.5% fetal bovine serum.
Description: Cancer cell lines were plated at 5,000 to 10,000 per well in 96-well flatted bottomed plates with various concentration of compounds. […] Growth inhibition was accessed by adenosine triphosphate (ATP) content assay using Perkin Elmer ATPlite kit. […] Briefly, 25 μl of mammalian cell lysis solution was added to 50 μl of phenol red-free culture medium per well to lyse the cells and stabilize the ATP. 25 μl of substrate solution was then added to the well and subsequently the luminescence was measured.
Data set [16] deals with Lung_H1703. Briefly: Cell proliferation assay (ATPlite). The class given is cell-based. Particulars: 72 hours, 0.5% fetal bovine serum. As for the experimental part:
as §1, §2, §3

The subject of data set [17] is A549 NSCLC. As to the kind of experiment: A549 NSCLC Xenograft model. The class given is in vivo, mice. The following applies: compared with vehicle or control. As for the experimental part:
A representative protocol for the in vivo experiment is as followed:
1-10×10^6 human cancer cells were implanted subcutaneously to the athymic (nu/nu) mice. When the tumors reached about 100 mm^3 in volume, the mice were treated with the compound by tail vein infusion. Routinely 5 groups (8-12 mice per group) are needed for a typical efficacy study, including one negative control, one positive control, and three testing groups for 3 dose levels of the same compound. Usually a 7-7-5 (on-off-on) regimen was used for one typical study. The tumor size was measured with an electronic caliper and body weight measured with a scale twice weekly. The tumors were removed from euthanized mice at the end of the study. One half of each tumor was frozen in dry ice and stored at −80° C. for PK or Western blot analysis. The other half was fixed with formalin. The fixed tissues were processed, embedded in paraffin and sectioned for immunohistochemistry staining. Protocol for Radioisotope assay for HER2

The nature of data set [18]: Dilution study with D5W. Particulars: 30% CAPTISOL solution. The class given is physicochemical.

As for `COc1cc2ncnc(Nc3ccc(F)c(Cl)c3)c2cc1OCCCCCCC(=O)NO` [Compound 6, 7-(4-(3-Chloro-4-fluorophenylamino)-7-methoxyquinazolin-6-yloxy)-N-hydroxyheptanamide], in data set [1], the “activity in HDAC enzyme assay compared with erlotinib and SAHA” value is “more active than erlotinib and SAHA”. Moreover, the “activity in EFGR enzyme assay compared with erlotinib and SAHA” value in data set [2] (FIG. 1) is “more active than erlotinib and SAHA”. Further, the IC50 in data set [3] is 1000 to 10000 nM; in [4], 100 to 1000 nM; in [5], 100 to 1000 nM; in data set [6] it was 100 to 1000 nM; in [7], 100 to 1000 nM; in data set [8] it was 100 to 1000 nM. Further, in data set [9], the IC50 lay in the range of 100 to 1000 nM.

In the case of `O=C(CCCCCCOc1ccc2ncnc(Nc3ccc(F)c(Cl)c3)c2c1)NO` [Compound 18, 7-(4-(3-chloro-4-fluorophenylamino)quinazolin-6-yloxy)-N-hydroxyheptanamide], the IC50 in data set [10] was 1000 to 10000 nM; in data set [11], 100 to 1000 nM; in data set [12], 100 to 1000 nM; in data set [13], 100 to 1000 nM; in data set [14] it was 100 to 1000 nM.

Take `COc1cc2ncnc(Nc3ccc(F)c(Cl)c3)c2cc1NC(=O)CCCCCCC(=O)NO` [Compound 40, N^1-(4-(3-chloro-4-fluorophenylamino)-7-methoxyquinazolin-6-yl)-N^8-hydroxyoctanediamide]: the IC50 in [10], in [11], in [13] and in data set [14] was 1000 to 10000 nM throughout.

Take `C#Cc1cccc(Nc2ncnc3cc(OC)c(NC(=O)CCCCCCC(=O)NO)cc23)c1` [Compound 44, N^1-(4-(3-ethynylphenylamino)-7-methoxyquinazolin-6-yl)-N^8-hydroxyoctanediamide]: the IC50 in [15] was 100 to 1000 nM; in [3] it was 1000 to 10000 nM; in [4], 1000 to 10000 nM; in data set [5], 1000 to 10000 nM; in data set [6] it was 1000 to 10000 nM; in data set [7], 1000 to 10000 nM. Also, the half-inhibitory concentration (IC50) in data set [16] and in data set [8] was 1000 to 10000 nM each time.

As to `COc1cc2ncnc(Nc3ccc(F)c(Cl)c3)c2cc1OCCOc1ccc(/C=C/C(=O)NO)cc1` [Compound 66, (E)-3-(4-(2-(4-(3-chloro-4-fluorophenylamino)-7-methoxyquinazolin-6-yloxy)ethoxy)phenyl)-N-hydroxyacrylamide], the IC50 in data set [10], in data set [7], in data set [13] and in [14] was 1000 to 10000 nM throughout.

On to `COCCOc1cc2ncnc(Nc3ccc(F)c(Cl)c3)c2cc1NC(=O)CCCCCCC(=O)NO` [Compound 70, N^1-(4-(3-chloro-4-fluorophenylamino)-7-(2-methoxyethoxy)quinazolin-6-yl)-N^8-hydroxyoctanediamide], for which the IC50 in data set [2] was < 100 nM; in data set [10], > 10000 nM; in data set [11], 1000 to 10000 nM; in data set [13], 1000 to 10000 nM; in data set [14], 1000 to 10000 nM.

Regarding `COc1cc2ncnc(N[C@H](C)c3ccccc3)c2cc1OCCCCCC(=O)NO` [Compound 77, (R)—N-hydroxy-6-(7-methoxy-4-(1-phenylethylamino)quinazolin-6-yloxy)-hexanamide], the IC50 is > 10000 nM in data set [10], 1000 to 10000 nM in [11], 100 to 1000 nM in data set [13] and > 10000 nM in data set [14].

For the compound `COc1cc2ncnc(N[C@H](C)c3ccccc3)c2cc1OCCCCCCC(=O)NO` [Compound 79, (R)—N-hydroxy-7-(7-methoxy-4-(1-phenylethylamino)quinazolin-6-yloxy)heptanamide], the IC50 in [10] was > 10000 nM; in data set [11], 1000 to 10000 nM; in data set [13], 1000 to 10000 nM; in [14], 1000 to 10000 nM.

As for `COc1cc2ncnc(NCc3ccccc3)c2cc1OCCCCCCC(=O)NO` [Compound 85, 7-(4-(Benzylamino)-7-methoxyquinazolin-6-yloxy)-N-hydroxyheptanamide], the concentration for half-maximal inhibition (IC50) lay in the range of 1000 to 10000 nM in [10]; 100 to 1000 nM in data set [7]; 100 to 1000 nM in [12]; 1000 to 10000 nM in data set [13]; 1000 to 10000 nM in [14].

For the compound `COc1cc2ncnc(Nc3ccc(F)c(Cl)c3)c2cc1OCCOc1ccc(C(=O)NO)cc1` [Compound 92, 4-(2-(4-(3-chloro-4-fluorophenylamino)-7-methoxyquinazolin-6-yloxy)ethoxy)-N-hydroxybenzamide], the IC50 in data set [2] was < 100 nM.

Regarding `C#Cc1cccc(Nc2ncnc3cc(OCCOC)c(OCCOC)cc23)c1` [Erlotinib, reference compound], in data set [17], the “effect on tumor size / tumor growth” value is “did not significantly affect tumor size”.

Consider Tartaric Acid, for which, in data set [18], the “Dilution with D5W” value is on record as >50x.

As usually defined, the IC50 is the concentration needed to halve the response being measured.
